Consider nine compounds from patent publication US20160207893A1, “NOVEL CALCIUM MODULATORS” (Myotherix, Inc., priority 2014, published 2016).

Data set [1] concerns iCell Cardiomyocytes (hIPS cardiomyocytes). The experiment in a line: Calcium transient dynamics in cardiomyocytes derived from human stem cells by Kinetic Image Cytometry. The class given is cell-based.
From the text: CTD25: Approximates the time elapsed during the first 25% of the transient duration. The measurement assesses the time elapsed from the 75% point of upstroke to the 75% point on the downstroke relative to the peak. Full Width Half Maximum (FWHM): The time elapsed from the 50% point of the upstroke to the 50% point of the down stroke. CTD75: Approximates the time elapsed for 75% of the transient duration. The measurement assesses the time elapsed from the 25% point of upstroke to the 25% point on the down stroke relative to the peak. CTD90: Approximates the time elapsed for 90% of the transient duration. The measurement assesses the time elapsed from the 10% point of upstroke to the 10% point on the down stroke relative to the peak. Decay Time: The time elapsed from the peak to the 50% point of the down stroke T75-25: The time elapsed from the 75% point of the transient maximum to the 25% point of the transient maximum on the down stroke. Beat Rate is assessed by measuring the number of transients observed during the recording period and extrapolating out to the number of expected beats per minute.
Analysis of Test Compounds on Calcium Transient Dynamics in Cardiomyocytes Derived from Human Stem Cells by Kinetic Image Cytometry
Cryopreserved cells (Cellular Dynamics International) were plated onto 96 well tissue culture plates previously coated with Matrigel (250 μg/ml) at a density of 25,000 cells per well, and maintained for two days in plating medium at 37° C. and 7% CO2. After two days in culture, the plating media was replaced with maintenance media and the cells were kept at 37° C. and 7% CO2 with the maintenance media replaced every other day. The cardiomyocytes were maintained in culture for 10 days prior to their use in the assay.
Prior to treatment with the test compounds, the cardiomyocytes were loaded using Fluo-4NW, Hoechst 33342 (200 ng/ml), and 2.5 mM probenecid in the supplied Fluo-4NW assay buffer. Cells were loaded for 1 hour at 37° C.
Test compounds were diluted to their final concentration in Tyrode's solution and brought to 37° C. In addition to standard 2 mM CaCl2 Tyrode's solution, elevated calcium variations using 4 mM and 6 mM CaCl2 were examined in separate test sets.
The hIPS Cardiomyocytes were also prepared for testing with 1 Hz electrical stimulation in standard 2 mM CaCl2 Tyrodes, and test compounds were prepared as described above. […]
Vala Sciences' Kinetic Image Cytometer (KIC™) was used to capture movies of the intracellular calcium transients. The environmental control chamber of the KIC was set to 37° C. and the KIC was fitted with a 20× objective and captured one image of the nuclei (Hoechst), then recorded 10 seconds of spontaneous activity (Fluo-4NW) at 30 fps from each well.
Data set [2] in a line: Plasma stability (incubation in mouse plasma, LC/MS/MS). To be noted: for Plasma Stability, Time 0 min / Plasma Stability, Time 30 min / Plasma Stability, Time 60 min / Plasma Stability, Time 240 min: 37° C., 20 μM, parent remaining vs 0-min control. The class given is in vitro ADME. The method, then: The assay was carried out in 96-well microtiter plates. Compounds were incubated at 37° C. in the presence of the plasma. Reaction mixtures (50 μL) contained a final concentration of 20 μM test compound. The extent of metabolism was calculated as the disappearance of the test compound, compared to the 0-min control reaction incubations. Eucatropine was included as a positive control to verify assay performance.
At each of the time points, 500 μL of quench solution (100% acetonitrile with 0.1% formic acid) with internal standard was transferred to each well. Plates were sealed, vortexed, and centrifuged at 4° C. for 15 minutes at 4000 rpm. The supernatant was transferred to fresh plates for LC/MS/MS analysis.
All samples were analyzed on LC/MS/MS using an AB Sciex API 4000 instrument, coupled to a Shimadzu LC-20AD LC Pump system. Analytical samples were separated using a Waters Atlantis T3 dC18 reverse phase HPLC column (10 mm×2.1 mm) at a flow rate of 0.5 mL/min. The mobile phase consisted of 0.1% formic acid in water (solvent A) and 0.1% formic acid in 100% acetonitrile (solvent B). Elution conditions are detailed in the table below.

Data set [3] deals with human Duchenne muscular dystrophy (hDMD) myoblast cells. The experiment in a line: Calcium release, SR calcium leak and SOCE in Fluo-4/AM-loaded hDMD myoblasts (CPA protocol). Type of data set: cell-based. To be noted: 30 uM; for Integrated CPA-Induced CaT (area under the curve) (% Reduction in Peak A): CPA in Ca2+-free solution; for % Reduction in Peak CaT after return to 2 mM Ca^2+ (% Reduction in Peak E): SOCE-induced calcium transit. The method, then:
Parameters measured are A, the peak CPA-induced calcium transit (F/F0); B, the maximum rate of rise of CPA-induced calcium transit (+ΔF/s); C, the maximum rate of decline of CPA-induced calcium transit (−ΔF/s); D, the integrated CPA-induced calcium transit (F.s); and E, the SOCE-induced calcium transit (F/F0).
Cell Preparation: De-identified telomerized human Duchenne muscular dystrophy (hDMD) myoblast cells were grown under standard cell culture conditions in 35 mm glass bottom petri dishes (MatTek, Ashland, Mass.) specially designed for perfusion and imaging.
Uncoated coverslips were coated with gelatin and hDMD cells seeded at ˜40-60% confluency 24 hours prior to fluorescence experiments.
Step 1. Cell Loading with the Fluorescent Ca^2+ Indicator Fluo-4/AM (Cell Permeant Form): hDMD cells were loaded with 5 μM Fluo-4/AM (Thermo Fisher Scientific) for 45 min at room temperature in the same buffer used for experiments of which composition is described below. After the incubation, the cells are washed twice with the same buffer without the indicator. Fluorescence experiments were initiated after a 30 min incubation in indicator-free buffer to allow for de-esterification of the dye and conversion to its acid active form by endogenous esterases.
Step 2. Fluo-4 Fluorescence Detection: A 35 mm petri dish containing Fluo-4-loaded myoblasts was set on the stage of an inverted Nikon Diaphot 300 epifluorescence microscope equipped with a dual PMT ratiometric fluorimeter system (Model SFX-2, Solamere Technology Group, Salt Lake City, Utah) and optical switch (Model DX-1000, Salt Lake City, Utah), a B/W camera and monitor, a PC computer running on Windows 7 Pro operating system and A/D-D/A data acquisition hardware (Axon Instruments Inc., Digidata 1440 interface) and software (Axon Instruments Inc., Axoscope v. 9.2). During a typical experiment, ca. one third to one half of a cell (field of view narrowed by a manually-controlled diaphragm) is visualized on the B/W TV monitor with an oil immersion 40× Fluor objective (NA=1.3) and defines the area from which epifluorescence intensity will be measured by one of the two PMTs (non-ratiometric measurements). For all experiments, the cells are excited by visible light produced by a 100 W mercury arc lamp centered at 488 nm. Emitted fluorescence at 520 nm is transmitted to the lateral port of the microscope by means of dichroic mirrors and a specific barrier filter located in one of three microscope filter cubes. Before each day of experiments, background fluorescence is cancelled by measuring emitted fluorescence in an unloaded cell. For all cells loaded with Fluo-4/AM, relative fluorescence intensity at 520 nm (filtered at 5 Hz) is normalized to Fluo-4 fluorescence intensity measured in Ca^2+-free medium (F/F0) prior to the addition of 10 μM cyclopiazonic acid (CPA; see protocol description below) to monitor Ca^2+ leakage from the sarcoplasmic reticulum (SR). Free intracellular Ca^2+ concentration is continuously monitored (>20 min; acquisition rate=200 Hz) with no evidence of photobleaching due to low level of excitation light intensity used and sensitivity of the Hamamatsu PMT set to high power.
After mounting the petri dish containing Fluo-4-loaded cells on the microscope stage, cell perfusion with normal physiological salt solutions (PSS) containing 2 mM Ca^2+ was initiated. A myoblast cell was then chosen under normal illumination. Fluo-4 fluorescence intensity recording was then initiated for 2 to 3 minutes to assess the level of loading and stability of the measurement. Once these conditions were met, the solution was switched to Ca^2+-free PSS for 5 min, and then switched for another 5 min to Ca^2+-free PSS containing only vehicle (Control; maximal concentration of 0.1% dimethyl sulfoxide) or vehicle plus drug to be tested (Test). […]

Data set [4] has as its system mdx mice. Briefly: Histology (H&E): muscle regeneration and markers of inflammation in treated mdx mice. Type of data set: in vivo, mouse. Particulars: 4-weeks treatment. The method, then: (§1) mdx C57BL/10 mice (15 mice per group) (Jackson Laboratory; mdx mice stock number 001801; C57BL/10 stock number 000476) were treated with Example 20 formulated in food (347 mg of Example 20 blended into 1 kg of Purina LabDiet Rodent 5001). Based on calculated food consumption, the dose of Example 20 was estimated to be 60 mg/Kg, administered daily in diet for 4 weeks.
(§2) Mice were delivered at 4 weeks of age, and acclimatized for an additional seven days prior to initiation of the study. All animals were weighed, and grouped into different treatment groups based on body weight. Each group received an appropriate daily dosage of Example 20 or vehicle. Age and sex-matched C57BL/10 (vehicle) were used as controls. Exposure levels of Example 1 (the metabolism product of Example 20) in mouse plasma was measured in a separate 5-day pharmacokinetic study in mdx mice prior to the initiation of the 4-week study. Plasma samples were also taken at the termination of the 4-week study for pharmacokinetic assessment in which exposure leves of Example 1 were again measured (the results are set out below). The functional measurements (grip strength measurement and exhaustion assay) were performed after treatment. At the end of the trial, the extensor digitorum longus muscle (EDL) and diaphragm in vitro force measurements were taken, and dissection of the mice was performed to collect tissues. Histology evaluation (H&E) was performed on the frozen sections of the diaphragm and gastrocnemius muscles for each group.
Diaphragm and gastrocnemius muscles of untreated and drug-treated mice were isolated and included in Killik frozen section medium, frozen and cut into 8-μm thick sections with the muscle fibers oriented transversely using a cryostat. Sections were stained with Hematoxylin & Eosin to evaluate markers of inflammation, muscle degeneration and regeneration and percentage central nuclei according to Grounds (TREAT NMD SOP protocol DMD_M.1.2.007, Quantification of histopathology in Haemotoxylin and Eosin stained muscle sections).

Data set [5] has as its system mdx mice. Briefly: In vitro force measurement of diaphragm muscle of treated mdx mice. Type of data set: in vivo, mouse. Particulars: ca. 60 mg/kg in diet, four weeks of daily treatment (FIG. 8). The procedure: as §1
as §2, with “Histology evaluation (H&E) was performed on the frozen sections of the diaphragm and gastrocnemius muscles for each group.” left out

Regarding `COC(=O)C1=C(C)NC(C)=C([N+](=O)[O-])C1c1ccccc1C(F)(F)F` (stereo not shown) [Bay K8644, reference compound], in data set [1] (reference compounds at 1 uM, under each experimental condition, 0.1% DMSO vehicle), the “CTD75 relative to vehicle control” value is ≥ 125 % of vehicle control.

On to `CC1CC(OC(=O)C(O)c2ccccc2)CC(C)(C)N1C` (stereo not shown) [Eucatropine, reference compound], for which, in data set [2], the “Plasma Stability, Time 0 min” value stood at 100.0%; the “Plasma Stability, Time 30 min” value turned out to be 90.0%; the “Plasma Stability, Time 60 min” value turned out to be 67.4%; the “Plasma Stability, Time 240 min” value is given as 41.0%.

As for `[2H]C(c1ccc(C(=O)O)cc1)N1CCSc2ccc(OC)cc2C1([2H])[2H]` (stereo not shown) [Example 1, 4-((5,5-Dideutero-7-methoxy-2,3-dihydrobenzo[f][1,4]thiazepin-4(5H)-yl)deuteromethyl)benzoic acid], the “plasma stability after 2-hours of incubation in plasma” value in data set [2] (2-hours of incubation) is recorded as “unchanged”. In data set [2], the “Plasma Stability, Time 0 min” value was 100.0%; the “Plasma Stability, Time 30 min” value worked out at 111.2%; the “Plasma Stability, Time 60 min” value is 99.8%; the “Plasma Stability, Time 240 min” value is 102.1%.

In the case of `COc1cc2c(cn1)SCCN(Cc1ccc(C(=O)O)cc1)C2` [Example 2, 4-((7-Methoxy-2,3-dihydropyrido[4,3-f][1,4]thiazepin-4(5H)-yl)methyl)benzoic acid], in data set [1] (10 uM, 30 uM (FIG. 5)), the “CTD75 shortened to % of control” value is 79 % of control and the “triangulation T75-25 reduced to % of control” value is reported as 71 % of control. Also, the “effect on proarrhythmia and calcium transient” value in data set [1] (10 uM, 30 uM, spontaneously beating cells in 4 mM calcium Tyrode's solution (FIG. 4)) was “dose-related reduction of proarrhythmia and calcium transient shortening”. In addition, in data set [3], the “Integrated CPA-Induced CaT (area under the curve) (% Reduction in Peak A)” value turned out to be 43.3% and the “% Reduction in Peak CaT after return to 2 mM Ca^2+ (% Reduction in Peak E)” value (from here on “% Reduction in Peak CaT after return”) worked out at 41.4%.

Regarding `COc1ccc2c(n1)CN(Cc1ccc(C(=O)O)cc1)CCS2` [Example 9, 4-((7-Methoxy-2,3-dihydropyrido[2,3-f][1,4]thiazepin-4(5H)-yl)methyl)benzoic acid], in data set [3], the “Integrated CPA-Induced CaT (area under the curve) (% Reduction in Peak A)” value came to 19.4% and the “% Reduction in Peak CaT after return” value was found to be 40.7%.

Consider `COc1cnc2c(c1)CN(Cc1ccc(C(=O)O)cc1)CCS2` [Example 13, 4-((7-Methoxy-2,3-dihydropyrido[3,2-f][1,4]thiazepin-4(5H)-yl)methyl)benzoic acid], for which, in data set [3], the “Integrated CPA-Induced CaT (area under the curve) (% Reduction in Peak A)” value was 25.9% and the “% Reduction in Peak CaT after return” value was 80.8%.

Take `COc1ncc2c(n1)CN(Cc1ccc(C(=O)O)cc1)CCS2` [Example 17, 4-((2-Methoxy-6,7-dihydropyrimido[4,5-f][1,4]thiazepin-8(9H)-yl)methyl)benzoic acid]: in data set [3], the “Integrated CPA-Induced CaT (area under the curve) (% Reduction in Peak A)” value came to 23.0% and the “% Reduction in Peak CaT after return” value is listed as 21%.

Consider `[2H]C(c1ccc(C(=O)OCCCCO[N+](=O)[O-])cc1)N1CCSc2ccc(OC)cc2C1([2H])[2H]` (stereo not shown) [Example 20], for which, in data set [2], the “Plasma Stability, Time 0 min” value turned out to be 100.0%; the “Plasma Stability, Time 60 min” value came out at 0.6%; the “Plasma Stability, Time 240 min” value was found to be 0.3%. For the same compound, in the data set with mdx mice [4], the “increase in regenerating fibers/mm^2 in the diaphragm” value was greater than 25%, the “increase in regenerating fibers/mm^2 in the gastrocnemius muscle” value is recorded as greater than 50% and the “reduction in inflammatory foci/mm^2 in the gastrocnemius muscle” value is recorded as greater than 30%. In addition, in the data set with mdx mice [5], the “maximal force in the diaphragm” value was “significant improvement” and the “specific force in the diaphragm” value is recorded as “significant improvement”.

As to `COc1ccc2c(c1)CN(C)CCS2` [Example S107, reference compound], in data set [3], the “Integrated CPA-Induced CaT (area under the curve) (% Reduction in Peak A)” value is 74.1% and the “% Reduction in Peak CaT after return” value is 52.8%.
